This passage reports Ki results from ChEMBL document CHEMBL5214972, “Design and evaluation of novel analogs of 2-amino-4-boronobutanoic acid (ABBA) as inhibitors of human gamma-glutamyl transpeptidase” (Bioorg Med Chem, 2022).

Structures are written as SMILES.

For experiment [1], the target named is T1, Glutathione hydrolase 1 proenzyme (Homo sapiens, UniProt P19440). The experiment in a line: Inhibition of human GGT1 transpeptidation in Pichia pastoris using L-GpNA as substrate in presence of Gly-Gly.
T1 sequence (P19440 1-380 limits assumed): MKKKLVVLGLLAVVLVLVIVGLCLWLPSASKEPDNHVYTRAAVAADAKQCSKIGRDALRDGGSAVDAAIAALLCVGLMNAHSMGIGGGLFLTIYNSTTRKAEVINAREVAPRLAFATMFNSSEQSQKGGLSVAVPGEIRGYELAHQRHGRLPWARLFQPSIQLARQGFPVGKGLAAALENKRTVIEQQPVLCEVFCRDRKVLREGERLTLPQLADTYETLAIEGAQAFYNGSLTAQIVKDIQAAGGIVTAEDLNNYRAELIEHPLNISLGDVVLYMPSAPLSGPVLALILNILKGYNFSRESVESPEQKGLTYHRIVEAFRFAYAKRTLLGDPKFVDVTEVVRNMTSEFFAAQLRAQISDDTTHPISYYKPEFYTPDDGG
T1 sequence (P19440 381-569 limits assumed): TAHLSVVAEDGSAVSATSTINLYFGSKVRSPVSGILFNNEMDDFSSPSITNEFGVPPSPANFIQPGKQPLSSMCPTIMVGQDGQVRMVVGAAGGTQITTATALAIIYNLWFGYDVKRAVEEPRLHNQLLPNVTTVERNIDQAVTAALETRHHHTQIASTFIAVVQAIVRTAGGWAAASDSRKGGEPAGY
The target of experiment [2] is T1, Glutathione hydrolase 1 proenzyme. Kind of experiment: Inhibition of human GGT1 expressed in Pichia pastoris assessed as inhibition of GSH hydrolysis measured by L-glutamate release assay.
The nature of experiment [3]: Inhibition of bovine GGT1 transpeptidation using gamma-glutamyl-p-nitroanilide in presence of Gly-Gly. Set-up: species or system Bos taurus.

Regarding `O=C(O)[C@@H](CCB(O)O)NCc1ccc(S(=O)(=O)Nc2ccccc2)cc1`, in experiment [1], the inhibitory constant (Ki) came out at 173 µM.

Turning to `O=C(O)c1cccc(CN[C@H](CCB(O)O)C(=O)O)c1`, the Ki in experiment [1] came to 589 µM. Consider `N[C@H](CN[C@H](CCB(O)O)C(=O)O)Cc1ccccc1`, for which the inhibition constant (Ki) in experiment [1] was 61 µM. For `N[C@@H](CN[C@H](CCB(O)O)C(=O)O)Cc1ccccc1`, the Ki in experiment [2] was determined as 508 µM; in experiment [1], 88 µM. In the same order, the values of `N[C@H](CCB(O)O)C(=O)O` are 0.077 µM and 0.045 µM.

For `C[C@@H](N)CN[C@H](CCB(O)O)C(=O)O`, the inhibition constant Ki in experiment [2] was greater than 1000 µM; in experiment [1], 254 µM.

As to `O=C(O)[C@@H](CCB(O)O)NCc1c[nH]cn1`, the values for the Ki in experiment [2] and in experiment [1] were 87 µM and 26 µM, respectively. The matching figures for `O=C(O)[C@@H](CCB(O)O)NCCCc1ccccc1`: 108 µM and 49 µM. The matching figures for `O=C(O)[C@@H](CCB(O)O)NCc1ccccc1`: 2150 µM and 202 µM.

Turning to `COc1ccc(CN[C@H](CCB(O)O)C(=O)O)cc1`, the Ki in experiment [1] came out at 343 µM.

Turning to `NCCN[C@H](CCB(O)O)C(=O)O`, the Ki in experiment [2] stood at 260 µM; in experiment [1] it was 46 µM. On to `O=C(O)[C@@H](CCB(O)O)NCCc1ccccc1`, for which the Ki amounted to 356 µM in experiment [2] and 220 µM in experiment [1]. Regarding `N[C@@H](CCB(O)O)C(=O)O`, the Ki in experiment [2] amounted to 0.025 µM; in experiment [1], 0.0054 µM; in experiment [3], 0.017 µM.

As usually defined, the Ki is a dissociation constant, usually derived from enzyme kinetics or from competition with a known ligand.
